# Laboratory results published in patent publication US11512079B2, “Heterocycle substituted pyridine derivative antifungal agents” (Amplyx Pharmaceuticals, Inc., priority 2017, dated 2022).
# What was measured:
# Format in all cases: cell-based
# [1] = tested on: Candida albicans 90028; assay: In vitro antifungal assay (Example IX), microdilution broth, MIC; details: minimum inhibitory concentration (≥50% inhibition), 35° C., 40-48 h, RPMI1640
# Description: Measurement of antifungal activity: Antifungal activity of the compounds was evaluated in a microdilution broth assay as per Clinical and Laboratory Standard Institute methodology for yeast (for Candida and Cryptococcus) (1) and molds (for Aspergillus and Rhizomucor) (2). Candida albicans 90028, Aspergillus fumigatus MYA3626, Rhizomucor pusillus 46342 and Cryptococcus neoformans H99 strains were obtained from American Type Culture Collection (ATCC).
# Preparation of Fungal Suspension. C. albicans 90028 and C. neoformans H99 strains were streaked from frozen stocks at −80° C. onto Sabouraud Dextrose Agar (SDA) plates. These were allowed to grow for 24 h (C. albicans) and 48 h (C. neoformans) at 35° C. before using them in the assay. 5-6 individual colonies were picked and diluted into sterile water to obtain a fungal suspension. The cell density of the suspension was determined and the culture diluted with RPMI1640 medium to obtain a fungal suspension of 2.5×10^3 cells/mL. The suspension was used in the MIC measurement as described below.
# Preparation of Compound Stocks and Intermediate Dilutions: The compounds were weighed and DMSO was added to prepare a 10 mg/mL stock. The solutions were mixed by vortexing and sonication at 37° C. for 5-10 mins. The resulting solutions were sterile filtered using a PTFE filter, and aliquoted (12 μL or as needed) and stored at −20° C. Intermediate compound dilutions were prepared in sterile polypropylene tubes in 100% DMSO. The compound stock solution was first diluted in DMSO to obtain a concentration of […] to 0.19 μg/mL.
# MIC/MEC Measurement: 99 μL 1 of the fungal suspension in RPMI1640 prepared as above was added to each well of a 96-well round bottom assay plate. 1 μL of the intermediate compound dilutions (200-0.19 μg/mL) were added to wells of the plate. This led to a 100-fold dilution of the intermediate dilutions resulting in a final compound concentration of 2-0.0019 μg/mL in the plate. 1 μL of DMSO was added to “No drug” control wells. The solutions were mixed by shaking on a plate shaker for 10 mins and plates incubated at 35° C. for 40-48 h (C. albicans, A. fumigatus, R. pusillus) and 72 h (Cryptococcus). […] This was validated by thorough mixing and reading at 600 nm on a microplate reader. The minimum concentration that led to shortening of hyphae as compared to hyphal growth in DMSO control wells was determined as the minimum effective concentration (MEC) for A. fumigatus and R. pusillus (as read for echinocandins). The use of the MIC and MEC endpoints against yeasts and molds, respectively has been described by Pfaller M A, Duncanson F, Messer S A, Moet G J, Jones R N, Castanheira M. Antimicrob Agents Chemother. 2011. 55(11):5155-8. In vitro activity of a novel broad-spectrum antifungal, E1210, tested against Aspergillus spp. determined by CLSI and EUCAST broth microdilution methods. Results are shown in Table 2, and the letters indicate the following ranges in μg/mL: […]
# [2] = tested on: Aspergillus fumigatus MYA3626; assay: In vitro antifungal assay (Example IX), microdilution broth, MEC; details: minimum effective concentration (shortening of hyphae), 35° C., 40-48 h, RPMI1640
# Description: (§1) Measurement of antifungal activity: […] Candida albicans 90028, Aspergillus fumigatus MYA3626, Rhizomucor pusillus 46342 and Cryptococcus neoformans […] strains were obtained from American Type Culture Collection (ATCC). […] (A. fumigatus) and 35° C. (R. pusillus). Water containing 1% Tween was directly added to the agar plate and gently agitated to wet and remove the Aspergillus conidia. For R. pusillus, water was added to the surface and gently massaged to wet and remove the spores. For both species, the conidia or spores and mycelial fragments were collected, followed by removal of mycelium, conidiophores and large clumps of conidia/spores. The resulting spore suspension was counted and diluted into RPMI1640 medium to adjust to a final suspension of 1-2×10^4 spores/mL. The suspension was used in the MEC measurement as described below. […] The compounds were weighed and DMSO was added to prepare a 10 mg/mL stock. The solutions were mixed by vortexing and sonication at 37° C. for 5-10 mins. The resulting solutions were sterile filtered using a PTFE filter, and aliquoted (12 μL or as needed) and stored at -20° C. Intermediate compound dilutions were prepared in sterile polypropylene tubes in 100% DMSO. […] This was validated by thorough mixing and reading at 600 nm on a microplate reader. The minimum concentration that led to shortening of hyphae as compared to hyphal growth in DMSO control wells was determined as the minimum effective concentration (MEC) for A. fumigatus and R. pusillus (as read for echinocandins). The use of the MIC and MEC endpoints against yeasts and molds, respectively has been described by Pfaller M A, Duncanson F, Messer S A, Moet G J, Jones […]. Antimicrob Agents Chemother. 2011. 55(11):5155-8. In vitro activity of a novel broad-spectrum antifungal, […], tested against Aspergillus spp. determined by CLSI and EUCAST broth microdilution methods. Results are shown in Table 2, and the letters indicate the following ranges in μg/mL: […]
# [3] = tested on: Rhizomucor pusillus 46342; assay: as above; details: minimum effective concentration (shortening of hyphae), 35° C., 40-48 h, RPMI1640
# Description: as §1
Structure (SMILES),MIC [1] [µg/mL],minimal effective concentration [2] [µg/mL],minimal effective concentration [3] [µg/mL]
"Cn1ccc(COc2ccc(Cc3cc(-c4cccnc4N)on3)cn2)n1 [compound 45, 3-(3-((6-((1-methyl-1H-pyrazol-3-yl)methoxy)pyridin-3-yl)methyl)isoxazol-5-yl)pyridin-2-amine]",0.1 to 1,0.1 to 1,> 1
"Nc1ncccc1-c1cc(Cc2ccc(CNCc3ccn[nH]3)cc2)no1 [compound 93, 3-(3-(4-((((1H-pyrazol-5-yl)methyl)amino)methyl)benzyl)isoxazol-5-yl)pyridin-2-amine]",> 1,> 1,> 1
"Nc1ncccc1-c1cnn(Cc2ccc(Sc3ccccc3)nc2)c1 [compound 67, 3-(1-((6-(phenylthio)pyridin-3-yl)methyl)-1H-pyrazol-4-yl)pyridin-2-amine]",0.1 to 1,0.1 to 1,> 1
"Nc1ncccc1-c1cc(Cc2ccc(Cn3ncc4ccccc43)cc2)no1 [Example 170, 3-(3-(4-((1H-indazol-1-yl)methyl)benzyl)isoxazol-5-yl)pyridin-2-amine]",0.1 to 1,0.1 to 1,0.1 to 1
"Nc1ncccc1-c1cc(Cc2ccc(CNc3nc4ccccc4[nH]3)cc2)no1 [Example 145, N-(4-((5-(2-aminopyridin-3-yl)isoxazol-3-yl)methyl)benzyl)-1H-benzo[d]imidazol-2-amine]",> 1,> 1,> 1
"Nc1ncccc1-c1cc(Cc2ccc(CNc3ncns3)cc2)no1 [compound 6, N-(4-((5-(2-aminopyridin-3-yl)isoxazol-3-yl)methyl)benzyl)-1,2,4-thiadiazol-5-amine]",> 1,> 1,> 1
"N#Cc1cnn(Cc2ccc(Cc3cc(-c4cccnc4N)on3)cc2)c1 [compound 3, 1-(4-((5-(2-aminopyridin-3-yl)isoxazol-3-yl)methyl)benzyl)-1H-pyrazole-4-carbonitrile]",0.1 to 1,0.1 to 1,> 1
"Cn1cc(COc2ccc(Cc3cc(-c4cccnc4N)on3)cn2)cn1 [compound 49, 3-(3-((6-((1-methyl-1H-pyrazol-4-yl)methoxy)pyridin-3-yl)methyl)isoxazol-5-yl)pyridin-2-amine]",> 1,> 1,> 1
"Nc1ncccc1-c1cc(Cc2ccc(Cc3ccc4ncnn4c3)cc2)no1 [compound 13, 3-(3-(4-([1,2,4]triazolo[1,5-a]pyridin-6-ylmethyl)benzyl)isoxazol-5-yl)pyridin-2-amine]",0.1 to 1,0.1 to 1,> 1
"Nc1ncccc1-c1cc(Cc2ccc(CNCC3CCOCC3)cc2)no1 [compound 95, 3-(3-(4-((((tetrahydro-2H-pyran-4-yl)methyl)amino)methyl)benzyl)isoxazol-5-yl)pyridin-2-amine]",> 1,> 1,> 1
"CS(=O)(=O)Nc1cccc(Cc2ccc(Cc3cc(-c4cccnc4N)on3)cc2)c1 [compound 211, N-(3-(4-((5-(2-aminopyridin-3-yl)isoxazol-3-yl)methyl)benzyl)phenyl)methanesulfonamide]",> 1,> 1,> 1
"C=Cc1ccc(Cc2cc(-c3cccnc3N)on2)cc1 [compound 97, 3-(3-(4-Vinylbenzyl)isoxazol-5-yl)pyridin-2-amine]",> 1,0.1 to 1,> 1
"Nc1ncccc1-c1cc(Cc2ccc(/C=C/Cc3ccccc3)cc2)no1 [compound 194, (E)-3-(3-(4-(3-phenylprop-1-en-1-yl)benzyl)isoxazol-5-yl)pyridin-2-amine]",> 1,0.1 to 1,> 1

# Further lines, with some results ahead:
MIC [1] [µg/mL],Structure (SMILES),minimal effective concentration [2] [µg/mL],minimal effective concentration [3] [µg/mL]
> 1,"Nc1ncccc1-c1cc(Cc2ccc(OCCCc3ccc(OCc4ccccc4)cc3)nc2)no1 [compound 214, 3-(3-((6-(3-(4-(benzyloxy)phenyl)propoxy)pyridin-3-yl)methyl)isoxazol-5-yl)pyridin-2-amine]",> 1,> 1
0.1 to 1,"Nc1ncccc1-c1cc(Cc2ccc(OCc3cc(F)cc(Cl)c3)nc2)no1 [compound 87, 3-(3-((6-((3-chloro-5-fluorobenzyl)oxy)pyridin-3-yl)methyl)isoxazol-5-yl)pyridin-2-amine]",0.01 to 0.1,> 1
0.1 to 1,"COc1ccc(F)cc1OCc1ccc(Cc2cc(-c3cccnc3N)on2)cc1 [compound 192, 3-(3-(4-((5-fluoro-2-methoxyphenoxy)methyl)benzyl)isoxazol-5-yl)pyridin-2-amine]",0.1 to 1,> 1
> 1,"Nc1ncccc1-c1cc(Cc2ccc(F)nc2)no1 [E, 3-(3-((6-fluoropyridin-3-yl)methyl)isoxazol-5-yl)pyridin-2-amine]",> 1,> 1
> 1,"Nc1ncccc1-c1cc(Cc2ccc(OCc3ccc(F)nc3)cc2)no1 [compound 116, 3-(3-(4-((6-fluoropyridin-3-yl)methoxy)benzyl)isoxazol-5-yl)pyridin-2-amine]",0.01 to 0.1,> 1
0.01 to 0.1,"Nc1ncccc1-c1cc(Cc2ccnc(OCc3cccc(F)c3)c2)no1 [compound 86, 3-(3-((2-((3-fluorobenzyl)oxy)pyridin-4-yl)methyl)isoxazol-5-yl)pyridin-2-amine]",0.01 to 0.1,> 1
0.1 to 1,"Nc1ncccc1-c1cc(Cc2ccc(NCc3ccc(F)cc3)nc2)no1 [Example 153, 5-((5-(2-aminopyridin-3-yl)isoxazol-3-yl)methyl)-N-(4-fluorobenzyl)pyridin-2-amine]",0.01 to 0.1,> 1
> 1,"N#Cc1ccc(COc2ccc(Cc3cc(-c4cccnc4N)on3)cn2)cc1 [compound 76, 4-(((5-((5-(2-aminopyridin-3-yl)isoxazol-3-yl)methyl)pyridin-2-yl)oxy)methyl)benzonitrile]",0.1 to 1,0.1 to 1
> 1,"Nc1ncccc1-c1cc(Cc2ccc(CCl)cc2)no1 [B, 3-(3-(4-(chloromethyl)benzyl)isoxazol-5-yl)pyridin-2-amine]",0.1 to 1,> 1
